Reference: patent publication US10111843B2, “Methods for treating brain injury” (HOUGH EAR INSTITUTE, priority 2011, dated 2018)

Tests used:
[1] = system: doublecortin; test: doublecortin immunostaining of hippocampus and entorhinal cortex after noise exposure; type: in vivo, chinchilla; details: for level of doublecortin staining in the entorhinal cortex: HPN-07 300 mg/kg i.p.
Procedure: In this Example, three-5 year old chinchilla were freedom divided into 3 groups (6 chinchilla at each time point in each group). Chinchilla in noise exposure and noise plus treatment groups were exposed to 105 dB SPL Octave band noise centered at 4 kHz for 6 hours. Chinchilla in the noise plus treatment group were received HPN-07 treatment (300 mg/kg, i.p) started 4 hours after noise exposure, and then twice a day for the following 2 days. Chinchilla in the normal control and the noise exposed only groups were received carrier solutions (i.p.). Chinchilla were euthanized and perfused with 4% paraformaldehyde in PBS 21 days and 6 months after noise exposure. Brains were dissected out and post-fixed in the fixative for one week. The brains were Cryosected at 30 μm. Goat anti-doublecortin (1:100) was used to label neural precursor cells. Images were taken from CA1 regions of hippocampus and the entorhinal cortex with a light microscope. Doublecortin staining reflects neurogenerosis in the brain after neuron damage and death after noise exposure.

[2] = blood-brain barrier permeability by contrast-enhanced T1-weighted MRI; type: in vivo, rat; details: given as 300 mg/kg NAC plus 300 mg/kg HPN-07 i.p., MRI seven days after initial drug administration
[3] = stated as known; cited from earlier work

Compound	level of doublecortin staining in the entorhinal cortex ([1]; 6 months post noise exposure)	density of doublecortin staining in the hippocampus ([1]; 6 months post noise exposure, HPN-07 300 mg/kg i.p. from 4 hours after noise)	level of doublecortin staining in the entorhinal cortex ([1]; 21 days post noise exposure)	blood-brain barrier permeability (% change in ROI signal intensity after Magnevist) [2]	blood-brain barrier permeability (% change in ROI signal intensity after Magnevist) ([2]; listed as 2,4-disulfonyl PBN)	blood-brain barrier permeability [3]
2,4-disulfonyl α-phenyl tertiary butyl nitrone [HPN-07]	decreases the level of doubtecortin staining	comparable to the control subjects	decreases the level of doubtecortin staining	effectively increases blood-brain barrier permeability	unexpectedly increases blood brain permeability	–
CC(=O)N[C@@H](CS)C(=O)O [NAC, N-acetylcysteine]	–	–	–	–	–	known to not increase blood-brain barrier permeability
